Experimental data as given in patent US20130137753A1, “METHODS AND COMPOSITIONS FOR THE DIAGNOSIS AND TREATMENT OF BREAST CANCER” (UNIVERSITY OF SOUTH ALABAMA, priority 2010, published 2013).

Legend:
Merlin [1] = assay: Western blot of Merlin protein levels in SUM159 cells transfected with Merlin cDNA and treated with recombinant OPN and Lactacystin; type: cell-based, human; conditions: SUM159 cells transfected with Merlin cDNA, recombinant OPN 100 ng/mL, FIG. 4A
Description: (§1) Western Blotting Analysis—Immunoblotting was done with anti-Merlin (Santa Cruz Biotech, Santa Cruz, Calif.), phospho-Ser473-Akt (Cell Signaling, Danvers, MAT), total Akt (Cell Signaling), anti-mouse HA (Santa Cruz), antiphospho-Ser315 Merlin, and anti-GAPDH (Cell Signaling). Anti-rabbit or anti-mouse HRP conjugated secondary antibody was used for detection and blots were developed with SuperSignal substrate (Pierce, Rockford, Ill.) and exposed using a Fuji LAS3000 imager.
(§2) Transfection and Drug Treatment—Cells were transfected with empty vector, Merlin (WT; wild-type) or T230A S315A Merlin mutant and treated with clasto-Lactacystin β-Lactone (Sigma, St. Louis, Mo.) for 2 hours. Recombinant OPN (100 ng/mL) (R&D Systems, Minneapolis, Minn.) was added and cells were lysed after 6 hours. Where indicated, cells were first treated with Akt inhibitor IV (Calbiochem) in serum free media for 30 min followed by 100 ng/mL human rOPN for 24 hours.
Akt signaling initiated downstream of OPN may regulate Merlin. To examine the effects of OPN on the post-translational regulation of Merlin, specifically the stability of Merlin protein, SUM159 breast cancer cells were transfected with Merlin cDNA and treated with recombinant OPN.

Akt = assay: Western blot of phospho-Akt and Merlin in MCF10AT cells treated with OPN and Akt inhibitor IV; type: cell-based, human; conditions: FIG. 4B
Description: as §1, §2
OPN interacts with a variety of cell surface receptors including CD44 and multiple integrins to activate signaling via the Akt pathway (31,38,39). […] The levels of total Akt remain unaltered. MCF10AT cells were also treated with Akt inhibitor IV in addition to OPN. […] Phosphorylation of Merlin via Akt targets it for degradation by the proteasome (15,40,41).

Merlin [2] = assay: Immunoprecipitation of Merlin and anti-HA blot for ubiquitination in SUM159 cells transfected with HA-ubiquitin and Merlin; type: cell-based, human; conditions: SUM159 cells constitutively expressing Merlin, OPN 100 ng/ml, Lactacystin 10 μM, FIG. 4D
Procedure: (§3) Immunoprecipitation—Cells were transfected with pcDNA3.1 HA-ubiquitin alone or in combination with pIRES2-myc-Merlin and incubated for 24 hrs. Cells were treated with 10 μM Lactacystin, 100 ng/ml OPN and 10 μM AKT inhibitor IV for 12 hrs and lysed in NP-40 buffer. The lysate was immunoprecipitated with anti-Merlin antibody and the immunoprecipitate was assessed by immunoblotting.
To assess the role of activated Akt induced by OPN, cells were co-treated with an Akt inhibitor. SUM159 cells were transfected with HA-ubiquitin and Merlin and treated with OPN (100 ng/ml), Lactacystin (10 μM) and Akt inhibitor IV. Cell lysate (1 mg) harvested in NP40 buffer was immunoprecipitated for Merlin. The immunoprecipitate was immunoblotted with anti-HA antibody. […] Merlin ubiquitination was enhanced when co-treated with OPN and was abolished in the presence of Akt inhibitor re-affirming the role of Akt downstream of OPN in modulating the stability of Merlin (FIG. 4D).

Merlin [3] = assay: Immunoprecipitation of endogenous Merlin and anti-HA blot for ubiquitination in MCF10AT cells transfected with HA-ubiquitin; type: cell-based, human
Procedure: as §3
To examine if OPN can induce ubiquitination of endogenous Merlin leading to its proteasomal degradation, MCF10AT cells were transfected with a HA-ubiquitin expressing construct. MCF10AT cells were transfected with HA-ubiquitin and treated with OPN, Lactacystin and Akt inhibitor IV. Cell lysate (2 mg) harvested in NP40 buffer was immunoprecipitated overnight for endogenous Merlin. The immunoprecipitate was immunoblotted with anti-HA antibody. Merlin and GAPDH levels from the cell lysates were inputs for the experiment.

Merlin [4] = assay: Western blot of phosphorylated Merlin (Serine 315) in SUM159 cells transfected with Merlin and treated with OPN; type: cell-based, human; conditions: SUM159 cells transfected with Merlin, treated with OPN, FIG. 5A
Description: as §1
Lysate from SUM159 cells transfected with Merlin and treated with OPN was probed for total Merlin and phosphorylated Merlin (Serine 315). GAPDH was used as a loading control. […] Phosphorylation of Merlin at this residue has been reported to target it for proteasome-mediated degradation (15,40). In particular, […] of Serine 315 and Threonine 230 makes Merlin refractory to OPN. SUM159 cells were transfected with Merlin (WT) or the T230A/S315A Merlin mutant and treated with OPN and Lactacystin. Cell lysates were probed for total Merlin. GAPDH was used as a loading control. Mutant Merlin (T230A S315A) is not degraded in response to OPN, whereas wild-type Merlin is degraded by OPN. […] It was further determined that while OPN is able to induce degradation of Merlin, the Merlin mutant T230A S315A (that cannot be phosphorylated by Akt) is resistant to the effects of OPN (FIG. 5B). […]

Merlin [5] = assay: Western blot of Merlin in MDA-MB-435 cells treated with Lactacystin and wortmannin; type: cell-based; conditions: combined treatment Lactacystin 10-25 μM and wortmannin 100 nM, FIG. 4E
Procedure: FIG. 4 depicts OPN targeting Merlin for Akt-mediated proteasomal degradation. FIG. 4A is a Western blot of SUM159 cells transfected with Merlin and treated with OPN and Lactacystin. […] The smear represents ubiquitinated Merlin. FIG. 4D is a Western blot of SUM159 transfected with HA-ubiquitin and Merlin and treated with OPN (100 ng/ml), Lactacystin (10 μM) and Akt inhibitor IV. FIG. 4E is a Western blot of MDA-MB-435 cells treated with the PI-3-kinase inhibitor, wortmannin and Lactacystin. Cells were pre-treated with Wortmannin (100 nM) for 1 hr followed by Lactacystin for 4.5 hours.
The converse was seen when MDAMB-435 cells were treated with the proteasome inhibitor, Lactacystin (10-25 μM) and the PI-3-kinase inhibitor, wortmannin (100 nM). […] Silencing the expression of OPN reduced the overall levels of ubiquitinated Merlin; in combination with Akt inhibitor and Lactacystin, abrogating OPN expression caused a notable decrease in the ubiquitinated Merlin (FIG. 4F).

Compound	protein levels of Merlin (Merlin [1])	Akt activation (phosphorylation of Akt to phospho-Akt) (Akt; recombinant OPN alone)	levels of Merlin (Akt; recombinant OPN alone)	Merlin ubiquitination (Merlin [2])	ubiquitination of endogenous Merlin (smear) (Merlin [3]; MCF10AT cells transfected with HA-ubiquitin, FIG. 4C)	phosphorylation of Merlin at Ser315 (Merlin [4])	levels of Akt phosphorylation (Akt; Akt inhibitor IV in addition to OPN)	levels of Merlin (Akt; Akt inhibitor IV in the presence of OPN)	ubiquitination of endogenous Merlin (Merlin [3]; co-treatment with Akt inhibitor in the presence of OPN)	Merlin expression (Merlin [5])
OPN: Recombinant OPN (R&D Systems), human rOPN; secreted phosphoglycoprotein osteopontin	decrease in the protein levels of Merlin	activated Akt	decrease in the levels of Merlin	enhanced	some ubiquitination	phosphorylation of Merlin at the Ser315 position				
Akt inhibitor IV				abolished			decreased	restored	abolished	
CC(=O)N[C@@H](CSC(=O)[C@]1([C@@H](O)C(C)C)NC(=O)[C@H](C)[C@@H]1O)C(=O)O										restored Merlin expression
